In BindingDB's records for PubMed 3016248 (The Johns Hopkins University, 1986):
pKi: −log10 of the molar value. Where “and” joins values, the source holds several entries; their conditions need not be identical. Identical values can stand only once.

Target: Glutamate receptor ionotropic, NMDA 1 (Rattus norvegicus, UniProt P35439)

## CC1(C2(C)COC(c3ccccc3)(c3ccccc3)O2)CCCCN1 (stereo unspecified) [CAS_4792-18-1]
  pKi: 5.65 and 5.63 and < 5.00 and 5.42
